Results from patent US10166199B2, “Transdermal patch comprising a ropivacaine formulation” (BUZZZ PHARMACEUTICALS LIMITED, priority 2013, dated 2019).
Read-outs that look alike come from different tables or passages of the source. Values belong to the molecule of their own block, whether it stands above or below them.

Key:
[1] = Excipient compatibility with Duro-Tak 87-900A adhesive; type: physicochemical; conditions: ropivacaine 4% (w/w) and excipient 5% (w/w) in Duro-Tak 87-900A; miscible, no precipitate after 72 hours
Protocol: (§1) Further excipients were assessed for ropivacaine solubility and compatibility with Duro-Tak® adhesive 87-900A. Adhesive compatibility was assessed by mixing ropivacaine (4% (w/w)) and excipient (5% (w/w)) with Duro-Tak® 87-900A.

[2] = Approximate ropivacaine solubility in excipients, assessed visually; type: physicochemical
Protocol: Approximate solubilities were assessed visually by gradual addition of ropivacaine to a known volume of excipient at room temperature until saturation was observed.
as §1

[3] = local anaesthetic during cataract surgery, cited from earlier work
[4] = solubility of ropivacaine in the named excipient, gradual addition at room temperature, visual

Molecule: CCCCCCCC/C=C\CCCCCCCC(=O)OCC(O)CO (stereo not shown) [Capmul-GMO-50, glycerol monooleate]
900A Compatible [1]: no

Molecule: CO[C@H]1CO[C@H]2[C@@H]1OC[C@H]2OC [DMI, dimethylisosorbide]
% Solubility (ropivacaine in candidate excipient) [2, 4]: 2.8-3.6 % w/v

Molecule: CCCN1CCCC[C@H]1C(=O)Nc1c(C)cccc1C [ropivacaine, (2S)—N-(2,6-dimethylphenyl)-1-propyl-2-piperidinecarboxamide]
potency relative to lidocaine ([3]; dose-for-dose): as much as four times as potent as lidocaine
half life relative to lidocaine [3]: longer half life

Second part, the molecule after the results:

% Solubility (ropivacaine in candidate excipient) [2, 4]: 4.1-4.6 % w/v
900A Compatible [1]: yes
Molecule: CCOCCOCCO [Transcutol P, ethoxy diglycol]

% Solubility (ropivacaine in candidate excipient) [2]: 1.2-2.1 % w/v
Molecule: apricot kernel oil PEG-6 esters [Labrafil M 1944 CS]

% Solubility (ropivacaine in candidate excipient) [2]: 1.3-1.8 % w/v
Molecule: propylene glycol dicaprylate/dicaprate [Labrafac PG]

900A Compatible [1]: no
Molecule: sorbitan monooleate [Span 80]

900A Compatible [1]: yes
Molecule: sorbitan trioleate [Span 85]
